These results are taken from US11203591B2, “Substituted 6-azabenzimidazole compounds” (Gilead Sciences, Inc., priority 2018, dated 2021).

pIC50: −log10 of the molar value.

human HPK1 (MAP4K1), sequence (Q92918 17-274): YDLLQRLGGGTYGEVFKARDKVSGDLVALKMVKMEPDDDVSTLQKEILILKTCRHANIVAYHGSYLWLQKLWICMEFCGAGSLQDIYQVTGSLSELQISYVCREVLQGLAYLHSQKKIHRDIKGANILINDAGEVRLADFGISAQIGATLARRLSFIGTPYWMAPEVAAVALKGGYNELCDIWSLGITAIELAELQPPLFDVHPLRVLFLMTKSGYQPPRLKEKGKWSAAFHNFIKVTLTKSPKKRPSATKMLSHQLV

The target in the first assay is human HPK1 (MAP4K1) (Homo sapiens (Human), UniProt Q92918). The experiment in a line: HPK1 IC50 Assay (TR-FRET peptide phosphorylation). As to conditions: 0.15 nM HPK1, 10 μM ATP, 1 μM STK S1 peptide substrate; geometric mean. The assay is classed as biochemical. The method, boiled down:
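Readout: TR-FRET (665 nm/620 nm) after EDTA stop, detecting STK S1 peptide (1 μM) phosphorylation by 0.15 nM HPK1 kinase domain, ATP-pre-activated, at 10 μM ATP over 3 h, 25° C, pH 7.0. IC50s from four-parameter variable-slope fits, normalized to staurosporine and DMSO, averaged geometrically.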
A general note: In TR-FRET formats the signal depends on donor and acceptor labels being close together.
For the compound `CC(C)n1cnc2cc(-c3cc4c(nc3F)C(C)(C)C(=O)N4[C@H]3C[C@@](C)(N4CCCCC4)C3)nc(Nc3cc(C(=O)NC4(C(F)F)CC4)c(Cl)c(F)c3F)c21` [Example 291, 2-chloro-N-(1-(difluoromethyl)cyclopropyl)-3,4-difluoro-5-((6-(5-fluoro-3,3-dimethyl-1-((1s,3s)-3-methyl-3-(piperidin-1-yl)cyclobutyl)-2-oxo-2,3-dihydro-1H-pyrrolo[3,2-b]pyridin-6-yl)-3-isopropyl-3H-imidazo[4,5-c]pyridin-4-yl)amino)benzamide], the pIC50 (usually the negative decadic logarithm of the IC50, by convention in mol/L) is 10.10.

For the compound `Cc1c(C(=O)NCC(F)F)cc(Nc2nc(-c3cc4c(nc3F)C(C)(C)C(=O)N4[C@H]3C[C@@](C)(N4CCCC5(CC5)C4)C3)cc3ncn(C(C)C)c23)c(F)c1F` [Example 277, N-(2,2-difluoroethyl)-3,4-difluoro-5-((6-(5-fluoro-3,3-dimethyl-1-((1s,3s)-3-methyl-3-(5-azaspiro[2.5]octan-5-yl)cyclobutyl)-2-oxo-2,3-dihydro-1H-pyrrolo[3,2-b]pyridin-6-yl)-3-isopropyl-3H-imidazo[4,5-c]pyridin-4-yl)amino)-2-methylbenzamide], the negative logarithm of the IC50 (pIC50) was 10.15.

`CC(C)n1cnc2cc(-c3ccc4c(c3)N([C@]3(C)C[C@H](N5CCCCC5)C3)C(=O)C4(C)C)nc(Nc3cc(C(=O)NC4(C(F)F)CC4)c(Cl)c(F)c3F)c21` [Example 296, 2-Chloro-N-(1-(difluoromethyl)cyclopropyl)-5-((6-(3,3-dimethyl-1-((1s,3s)-1-methyl-3-(piperidin-1-yl)cyclobutyl)-2-oxoindolin-6-yl)-3-isopropyl-3H-imidazo[4,5-c]pyridin-4-yl)amino)-3,4-difluorobenzamide] gave a negative logarithm of the IC50 (pIC50) of 10.00.

Staying with this assay, now noted: recombinant HPK1 kinase domain 0.15 nM, 10 μM ATP, 1 μM STK S1 peptide; geometric mean of multiple experiments.
As to `Cc1ccc(Nc2nc(-c3ccc4c(c3)N([C@H]3C[C@@](C)(N5CCCCC5)C3)C(=O)C4(C)C)cc3ncn(C4CC4)c23)cc1C(N)=O` [Example 183, 5-((3-cyclopropyl-6-(3,3-dimethyl-1-((1s,3s)-3-methyl-3-(piperidin-1-yl)cyclobutyl)-2-oxoindolin-6-yl)-3H-imidazo[4,5-c]pyridin-4-yl)amino)-2-methylbenzamide], the pIC50 is 10.30.

For `CNC(=O)c1cc(Nc2nc(-c3ccc4c(c3)N([C@H]3C[C@@H](N5CC6CCC(C5)O6)C3)C(=O)C4(C)C)cc3ncn(C(C)C)c23)c(F)cc1C` [Example 10], the pIC50 was 10.00.

Consider `CC(C)n1cnc2cc(-c3cnc4c(c3)N([C@H]3C[C@@](C)(N5CCCCC5)C3)C(=O)C4(C)C)nc(Nc3cc(C(=O)NC4(C(F)F)CC4)c(Cl)cc3F)c21` [Example 202, 2-Chloro-N-(1-(difluoromethyl)cyclopropyl)-5-((6-(3,3-dimethyl-1-((1s,3s)-3-methyl-3-(piperidin-1-yl)cyclobutyl)-2-oxo-2,3-dihydro-1H-pyrrolo[3,2-b]pyridin-6-yl)-3-isopropyl-3H-imidazo[4,5-c]pyridin-4-yl)amino)-4-fluorobenzamide], for which the negative logarithm of the IC50 (pIC50) was 10.00.

As to `CNC(=O)c1cc(Nc2nc(-c3ccc4c(c3)N([C@H]3C[C@@H](N5CCCCC5)C3)C(=O)C4(C)C)cc3ncn(C(C)C)c23)ccc1C1CC1` [Example 142], the negative logarithm of the IC50 (pIC50) is 9.70.

Consider `CNC(=O)c1cc(Nc2nc(-c3ccc4c(c3)N([C@H]3C[C@@H](N5CCCCC5)C3)C(=O)C43CCN(C(=O)C4(C)COC4)CC3)cc3ncn(C4CC4)c23)ccc1C` [Example 85], for which the negative logarithm of the IC50 (pIC50) is 10.00.

Turning to `CC(C)n1cnc2cc(-c3cnc4c(c3)N([C@H]3C[C@@](C)(N5CCC6CC6C5)C3)C(=O)C4(C)C)nc(Nc3cc(C(=O)NCC(F)F)c(Cl)c(F)c3F)c21` (stereo partly drawn) [Example 256, 5-((6-(1-((1s,3s)-3-(3-azabicyclo[4.1.0]heptan-3-yl)-3-methylcyclobutyl)-3,3-dimethyl-2-oxo-2,3-dihydro-1H-pyrrolo[3,2-b]pyridin-6-yl)-3-isopropyl-3H-imidazo[4,5-c]pyridin-4-yl)amino)-2-chloro-N-(2,2-difluoroethyl)-3,4-difluorobenzamide], the pIC50 was 10.30.

In the case of `CC(C)NC(=O)c1cc(Nc2nc(-c3ccc4c(c3)N([C@H]3C[C@@H](N5CCCCC5)C3)C(=O)C4(C)C)cc3ncn(C(C)C)c23)ccc1Cl` [Example 115], the pIC50 was 10.00.

As for `CNC(=O)c1cc(Nc2nc(-c3ccc4c(c3)N([C@H]3C[C@@H](N5CCCCC5)C3)C(=O)C43CCN(C(=O)C(C)(C)O)CC3)cc3ncn(C(C)C)c23)ccc1C` [Example 146, 5-((6-(1′-(2-hydroxy-2-methylpropanoyl)-2-oxo-1-((1s,3s)-3-(piperidin-1-yl)cyclobutyl)spiro[indoline-3,4′-piperidin]-6-yl)-3-isopropyl-3H-imidazo[4,5-c]pyridin-4-yl)amino)-N,2-dimethylbenzamide], the pIC50 was 10.00.

In the case of `CCNC(=O)c1cc(Nc2nc(-c3ccc4c(c3)N([C@H]3C[C@@H](N5CCCCC5)C3)C(=O)C43CCN(C4COC4)CC3)cc3ncn(C(C)C)c23)c(F)cc1C` [Example 69], the negative logarithm of the IC50 (pIC50) is 10.00.

In the case of `Cc1ccc(Nc2nc(-c3ccc4c(c3)N([C@H]3C[C@@H](N5CCCCC5)C3)C(=O)C43CCOCC3)cc3ncn(C(C)C)c23)cc1C(=O)NC1(C(F)F)CC1` [Example 32], the pIC50 was 10.10.

`CNC(=O)c1cc(Nc2nc(-c3ccc4c(c3)N([C@H]3C[C@@H](N5CCCCC5)C3)C(=O)C43CCN(C(=O)OC)CC3)cc3ncn(C4CC4)c23)ccc1C` [Example 50]: the pIC50 was 10.00.

`COCCNC(=O)c1cc(Nc2nc(-c3ccc4c(c3)N([C@H]3C[C@@H](N5CCCCC5)C3)C(=O)C4(C)C)cc3ncn(C(C)C)c23)ccc1C` [Example 137]: the pIC50 is 10.00.

Consider `COCC1(NC(=O)c2cc(Nc3nc(-c4ccc5c(c4)N([C@H]4C[C@@H](N6CCCCC6)C4)C(=O)C54CCN(C(C)=O)CC4)cc4ncn(C(C)C)c34)c(F)cc2C)CC1` [Example 90], for which the pIC50 is 9.52.

On to `CCNC(=O)c1cc(Nc2nc(-c3cnc4c(c3)N([C@H]3C[C@@](C)(N5CCC6CC6C5)C3)C(=O)C4(C)C)cc3ncn(C(C)C)c23)c(F)c(F)c1Cl` (stereo partly drawn) [Example 251, 5-((6-(1-((1s,3s)-3-(3-azabicyclo[4.1.0]heptan-3-yl)-3-methylcyclobutyl)-3,3-dimethyl-2-oxo-2,3-dihydro-1H-pyrrolo[3,2-b]pyridin-6-yl)-3-isopropyl-3H-imidazo[4,5-c]pyridin-4-yl)amino)-2-chloro-N-ethyl-3,4-difluorobenzamide], for which the pIC50 is 10.40.

On to `CNC(=O)c1cc(Nc2nc(-c3ccc4c(c3)N([C@H]3C[C@@H](N5CCC(C)(C)C5)C3)C(=O)C43CCN(C(C)=O)CC3)cc3ncn(C(C)C)c23)ccc1C` [Example 165], for which the pIC50 is 10.00.

For `CNC(=O)c1cc(Nc2nc(-c3ccc4c(c3)N([C@H]3C[C@@H](N5CCCCC5)C3)C(=O)C43CCN(C(=O)C(C)C)CC3)cc3ncn(C4CC4)c23)ccc1C` [Example 52], the negative logarithm of the IC50 (pIC50) is 10.05.

Consider `CNC(=O)c1cc(Nc2nc(-c3ccc4c(c3)N([C@H]3C[C@@H](N5CCOCC5)C3)C(=O)C4(C)C)cc3ncn(C(C)C)c23)ccc1C` [Example 39], for which the pIC50 is 10.00.

For the compound `Cc1cc(F)c(Nc2nc(-c3cnc4c(c3)N([C@H]3C[C@@](C)(N5CCOCC5)C3)C(=O)C4(C)C)cc3ncn(C(C)C)c23)cc1C(=O)NC1(C(F)F)CC1` [Example 215, N-(1-(Difluoromethyl)cyclopropyl)-5-((6-(3,3-dimethyl-1-((1s,3s)-3-methyl-3-morpholinocyclobutyl)-2-oxo-2,3-dihydro-1H-pyrrolo[3,2-b]pyridin-6-yl)-3-isopropyl-3H-imidazo[4,5-c]pyridin-4-yl)amino)-4-fluoro-2-methylbenzamide], the pIC50 was 10.00.

In the case of `CC[C@H](C)n1cnc2cc(-c3ccc4c(c3)N([C@H]3C[C@@H](N5CCCCC5)C3)C(=O)C43CCN(C(=O)OC)CC3)nc(Nc3ccc(C)c(C(=O)NC)c3)c21` [Example 169], the pIC50 is 10.00.

`CC(C)n1cnc2cc(-c3cnc4c(c3)N([C@H]3C[C@@](C)(N5CCCCC5)C3)C(=O)C4(C)C)nc(Nc3cc(C(=O)NC4CC4)c(Cl)c(F)c3F)c21` [Example 265, 2-chloro-N-cyclopropyl-5-((6-(3,3-dimethyl-1-((1s,3s)-3-methyl-3-(piperidin-1-yl)cyclobutyl)-2-oxo-2,3-dihydro-1H-pyrrolo[3,2-b]pyridin-6-yl)-3-isopropyl-3H-imidazo[4,5-c]pyridin-4-yl)amino)-3,4-difluorobenzamide]: the pIC50 was 10.22.

With `CC(C)n1cnc2cc(-c3cnc4c(c3)N(C3CC(C)(N5CCC6C[C@@H]6C5)C3)C(=O)C4(C)C)nc(Nc3cc(C(=O)NC4(C(F)F)CC4)c(Cl)c(F)c3F)c21` (stereo partly drawn) [Example 262, 5-((6-(1-((1s,3s)-3-(3-azabicyclo[4.1.0]heptan-3-yl)-3-methylcyclobutyl)-3,3-dimethyl-2-oxo-2,3-dihydro-1H-pyrrolo[3,2-b]pyridin-6-yl)-3-isopropyl-3H-imidazo[4,5-c]pyridin-4-yl)amino)-2-chloro-N-(1-(difluoromethyl)cyclopropyl)-3,4-difluorobenzamide], the pIC50 is 10.00.

Take `Cc1ccc(Nc2nc(-c3ccc4c(c3)N([C@H]3C[C@@H](N5CCCCC5)C3)C(=O)C4(C)C)cc3ncn(C4CC4)c23)cc1C(N)=O` [Example 112]: the negative logarithm of the IC50 (pIC50) is 10.05.

In the case of `CC(=O)N1CC2(C1)C(=O)N([C@H]1C[C@@H](N3CCCCC3)C1)c1cc(-c3cc4ncn(C(C)C)c4c(Nc4cc(C(=O)NC(C)C)c(C)cc4F)n3)ccc12` [Example 179], the negative-log IC50 (pIC50) was 8.96.

For `CC(C)n1cnc2cc(-c3cnc4c(c3)N([C@H]3C[C@@](C)(N5CCCC6(CC6)C5)C3)C(=O)C4(C)C)nc(Nc3cc(C(=O)NC4(C(F)F)CC4)c(Cl)c(F)c3F)c21` [Example 203, 2-Chloro-N-(1-(difluoromethyl)cyclopropyl)-5-((6-(3,3-dimethyl-1-((1s,3s)-3-methyl-3-(5-azaspiro[2.5]octan-5-yl)cyclobutyl)-2-oxo-2,3-dihydro-1H-pyrrolo[3,2-b]pyridin-6-yl)-3-isopropyl-3H-imidazo[4,5-c]pyridin-4-yl)amino)-3,4-difluorobenzamide], the negative-log IC50 (pIC50) was 10.15.
